In patent US20240398822A1, “METHODS AND COMPOSITIONS FOR TREATING AND MANAGING ALZHEIMER'S DISEASE” (Pharmatrophix, Inc., priority 2021, published 2024):
“Also recorded” adds a separate entry of the source.

Tests used:
[1] = Drug substance stability on storage and under accelerated/ICH stress conditions; type: physicochemical
Procedure: Preparation of the clinical dosage form consists of a dry fill of the drug substance into gelatin capsules with no excipients. For the Phase II study, capsules with the salt of Formula (II)(200 mg or 400 mg, free base weight) are machine-filled and packaged in blister strips with aluminum foil backing, which are stored in cardboard boxes. Matching placebo capsules are also available in the same packaging.

[2] = system: patients with mild to moderate Alzheimer's disease; assay: Phase IIa safety and tolerability (adverse events, vital signs, ECG, MRI, laboratory); type: in vivo, human; conditions: for subjects who discontinued the phase 2a trial due to AEs or SAEs: of 16 subjects in total; for course of the increase in eosinophil level: also where treatment was continued; for overall safety and tolerability: phase IIa
From the text: Safety monitoring included the full extent of phase 2 clinical and laboratory testing.
For all safety evaluations, only an overall ‘Safety’ population is described. This includes all patients who received at least one dose of medication and consider all patients according to the treatment they actually receive. Additionally, a PK population will be described for only patients receiving active study IMP.

[3] = Estimating human brain exposure to drug; type: in vivo; conditions: oral dosing at 200 mg bid and 400 mg bid
Procedure: Key inclusion criteria for the 2a trial include a diagnosis of mild-moderate AD by McKhann criteria and a CSF measure of Ab 42/40 ratio under 0.089 OR a Ab 42 level <550 ng/L (FIG. 28). These criteria are discussed in Schindler et al. 2018.

[4] = system: subjects in SAD and MAD studies; assay: Phase 1 SAD/MAD safety; type: in vivo
From the text: The phase 1 study was placebo controlled and double blinded and included 52 subjects in SAD studies and 20 subjects in MAD studies.

[5] = 200 mg bid (N = 78), 26 weeks, safety population
[6] = 200 mg bid (N = 78), 26 weeks, safety population, listed as LM11A
[7] = 200 mg bid (N = 78), 26 weeks, safety population, listed as LM11A-31
[8] = 400 mg bid (N = 83), 26 weeks, safety population
[9] = 400 mg bid (N = 83), 26 weeks, safety population, listed as LM11A
[10] = 400 mg bid (N = 83), 26 weeks, safety population, listed as LM11A-31

## CC[C@H](C)[C@H](N)C(=O)NCCN1CCOCC1 [LM11A-31-BHS, Tris[(2S,3S)-2-amino-3-methyl-N-(2-morpholinoethyl)pentanamide] tetra(monohydrogensulfate), monosulfate]
[1]; GMP lots
  impurities following storage at ICH stress conditions: no impurities above the LOD
[1]; Phase I drug substance lot, six months accelerated conditions, or 48 months at 25° C./60% RH
  changes related to assay or impurities: no significant changes
[1]; drug substance
  stability under accelerated temperature and humidity conditions: very good stability
[1]; through 18 months at −20° C., 5° C., 25° C./60% RH or 40° C./75% RH, other than moisture content
  changes in the drug substance on storage: no significant changes
[2]; 200 mg bd, safety population
  patients discontinued because of AEs: 2 patients
  patients discontinued because of serious AE: 0 patients
[2]; [5]
  AEs Leading To Discontinuation of Study IMP, % of patients: 6.4%
  AEs Leading To Discontinuation of Study IMP, freq (events): 5
  AEs Leading To Discontinuation of Study IMP, n (patients): 5
  Adverse events, Drug Relationship: Not Related, % of patients: 52.6%
  Adverse events, Drug Relationship: Not Related, freq (events): 85
  Adverse events, Drug Relationship: Not Related, n (patients): 41
  Adverse events, Drug Relationship: Related, freq (events): 15
  Adverse events, Drug Relationship: Related, n (patients): 12
  Adverse events, Intensity: Mild, freq (events): 86
  Adverse events, Intensity: Mild, n (patients): 40
  Adverse events, Intensity: Moderate, freq (events): 12
  Adverse events, Intensity: Moderate, n (patients): 11
  Adverse events, Intensity: Severe, freq (events): 2
  Adverse events, Intensity: Severe, n (patients): 2
  All Adverse Events, % of patients: 60.3%
  All Adverse Events, freq (events): 109
  All Adverse Events, n (patients): 47
  Serious AEs, % of patients: 2.6%
  Serious AEs, freq (events): 2
  Serious AEs, n (patients): 2
  Treatment Emergent Adverse Events (TEAEs), % of patients: 59.0%
  Treatment Emergent Adverse Events (TEAEs), freq (events): 100
  Treatment Emergent Adverse Events (TEAEs), n (patients): 46
[2]; 200 mg bid (N = 78), 26 weeks, safety population, listed as LM1 1A-31
  Adverse events, Intensity: Severe, % of patients: 6%
[2]; [6]
  Adverse events, Drug Relationship: Related, % of patients: 15.4%
  Adverse events, Intensity: Moderate, % of patients: 14.1%
  Adverse events, Intensity: Severe, % of patients: 2.6%
[2]; [7]
  Adverse events, Drug Relationship: Related, % of patients: 15%
  Adverse events, Intensity: Moderate, % of patients: 14%
  Adverse events, Intensity: Severe, % of patients: 3%
[2]; 200 mg bid group (N = 78)
  Pre-Treatment Signs and Symptoms (PTSS), % of patients: 10.3%
  Pre-Treatment Signs and Symptoms (PTSS), freq (events): 9
  Pre-Treatment Signs and Symptoms (PTSS), n (patients): 8
[2]; 200 mg group
  share of the 10 severe TEAEs: 20%
  subjects with GI side effects (diarrhea in most cases): approximately 8%
  subjects who discontinued the phase 2a trial due to AEs or SAEs: 2 subjects
[2]; 400 mg bd, safety population
  patients discontinued because of AEs: 8 patients
  patients discontinued because of serious AE: 3 patients
[2]; [8]
  AEs Leading To Discontinuation of Study IMP, % of patients: 18.1%
  AEs Leading To Discontinuation of Study IMP, freq (events): 20
  AEs Leading To Discontinuation of Study IMP, n (patients): 15
  Adverse events, Drug Relationship: Not Related, % of patients: 57.8%
  Adverse events, Drug Relationship: Not Related, freq (events): 150
  Adverse events, Drug Relationship: Not Related, n (patients): 48
  Adverse events, Drug Relationship: Related, freq (events): 23
  Adverse events, Drug Relationship: Related, n (patients): 13
  Adverse events, Intensity: Mild, freq (events): 119
  Adverse events, Intensity: Mild, n (patients): 46
  Adverse events, Intensity: Moderate, freq (events): 49
  Adverse events, Intensity: Moderate, n (patients): 24
  Adverse events, Intensity: Severe, freq (events): 5
  Adverse events, Intensity: Severe, n (patients): 5
  All Adverse Events, % of patients: 66.3%
  All Adverse Events, freq (events): 185
  All Adverse Events, n (patients): 55
  Serious AEs, % of patients: 8.4%
  Serious AEs, freq (events): 7
  Serious AEs, n (patients): 7
  Treatment Emergent Adverse Events (TEAEs), % of patients: 65.1%
  Treatment Emergent Adverse Events (TEAEs), freq (events): 173
  Treatment Emergent Adverse Events (TEAEs), n (patients): 54
[2]; [9]
  Adverse events, Drug Relationship: Related, % of patients: 15.7%
  Adverse events, Intensity: Moderate, % of patients: 28.9%
  Adverse events, Intensity: Severe, % of patients: 6.0%
[2]; [10]
  Adverse events, Drug Relationship: Related, % of patients: 15%
  Adverse events, Intensity: Moderate, % of patients: 29%
[2]; 400 mg bid group (N = 83)
  Pre-Treatment Signs and Symptoms (PTSS), % of patients: 9.6%
  Pre-Treatment Signs and Symptoms (PTSS), freq (events): 12
  Pre-Treatment Signs and Symptoms (PTSS), n (patients): 8
[2]; 400 mg group
  share of the 10 severe TEAEs: 50%
  subjects with GI side effects (diarrhea in most cases): approximately 35%
  subjects who discontinued the phase 2a trial due to AEs or SAEs: 11 subjects
[2]; 200 and 400 mg groups together
  subjects receiving treatment with eosinophilia reported as an adverse event: 10 subjects
[2]; AEs otherwise similar between placebo and drug groups
  adverse events, drug groups compared with placebo: higher rates in the drug group of nasopharyngitis, GI symptoms including diarrhea and transient, asymptomatic blood eosinophilia
[2]
  course of the increase in eosinophil level: declined to normal levels
[2]; listed as salt of Formula (II)
  course of the increase in eosinophil level: transient
[2]; any group, 26 weeks
  life-threatening (Grade 4) adverse events: no life-threatening (Grade 4) adverse events
[2]; during the visits
  heart rate and body temperature: no clinically significant changes
[2]; for some events statistically significant
  rate of several adverse events, 400 mg versus 200 mg: higher for the 400 mg group
[2]; in vivo
  MRI-based safety analysis: no drug related adverse outcomes including hemorrhage or edema; also recorded: no events that raised any concern about the drug safety
  safety laboratory and urine analysis: did not show any patterns of concern
[2]; 26 weeks
  overall safety and tolerability: no results raised any concerns about the safety
[2]; 26 weeks, listed as salt of Formula (II)
  overall safety and tolerability: no serious adverse events occurred that raised concerns about the tolerability of the drug
[2]; safety population
  12-lead ECG: no relevant changes; also recorded: No significant changes
  blood pressure: no relevant changes; also recorded: No significant changes
  vital signs: no relevant changes; also recorded: No significant changes
[2]; treatment group
  highest eosinophil level reached: ≤ 5000 per μl
[2]; verum group
  subjects with eosinophil counts transiently above 500 per μl: 73 subjects
[2]; week 4
  subjects with increased eosinophil value considered clinically significant: 11 subjects
[3]
  estimated human brain levels of drug: in a range found to engage target mechanisms and derive therapeutic benefit in mouse models
[4]; in vivo
  deaths, SAEs, severe TEAEs, discontinuations because of an AE: no deaths, SAEs, severe TEAEs, and no subjects were discontinued because of an AE
  intensity of TEAEs: All TEAEs were mild
  laboratory results, physical examination, vital signs, ECG, C-SSRS: No clinically significant laboratory results, physical examination findings, vital signs, ECG findings, or positive scores
[4]; multiple doses
  subjects who experienced TEAEs: 7 of 16
  total TEAEs: 8
[4]; multiple doses, remaining 2 possibly (flatulence) or remotely (nocturia) related
  TEAEs considered unrelated to study drug: 6
[4]; single dose
  subjects who experienced a TEAE: 1 of 40
[4]; single dose, postural dizziness, possibly related
  total TEAEs: 1
[4]; single doses of 100, 300, 600 and 900 mg free base, multiple doses of 300 BID and 600 mg free base QD
  safety and tolerability: generally safe and well tolerated
